From patent US5708016A, “Pseudopeptides derived from neurokinins” (Adir et Compagnie, priority 1996, dated 1998)

Columns and labels:
[1] = target: T1, NK1 receptors (Oryctolagus cuniculus, UniProt G1SEI7); test: Isolated smooth muscle: rabbit vena cava (RVC) contraction, antagonist pA2; assay type: biochemical
T1 construct: two isolated preparations of smooth muscle were used: the rabbit vena cava (RVC); from tissue; host or cells: rabbit vena cava
Text: (§1) In order to evaluate the functional activity of the compounds of the invention as neurokinin antagonists, two isolated preparations of smooth muscle were used: the rabbit vena cava (RVC) and the rabbit pulmonary artery without endothelium (RPA), the contractile responses of which are mediated, respectively, by the NK1 and NK2 receptors as shown by D. Jukic et al. (Life Sci. 1991, 49, 1463-1469).
(§2) The antagonist power of the compounds of the invention was expressed in the form of pA2 as defined by O. Arunlakshana and H. O. Schild (Brit. J. Pharmacol. 1959, 14, 48-58).

[2] = target: T2, NK2 receptors (Oryctolagus cuniculus, UniProt P79218); test: Isolated smooth muscle: rabbit pulmonary artery without endothelium (RPA) contraction, antagonist pA2; assay type: biochemical
T2 construct: the rabbit pulmonary artery without endothelium (RPA); from tissue; host or cells: rabbit pulmonary artery without endothelium
T2 sequence (P79218 1-384): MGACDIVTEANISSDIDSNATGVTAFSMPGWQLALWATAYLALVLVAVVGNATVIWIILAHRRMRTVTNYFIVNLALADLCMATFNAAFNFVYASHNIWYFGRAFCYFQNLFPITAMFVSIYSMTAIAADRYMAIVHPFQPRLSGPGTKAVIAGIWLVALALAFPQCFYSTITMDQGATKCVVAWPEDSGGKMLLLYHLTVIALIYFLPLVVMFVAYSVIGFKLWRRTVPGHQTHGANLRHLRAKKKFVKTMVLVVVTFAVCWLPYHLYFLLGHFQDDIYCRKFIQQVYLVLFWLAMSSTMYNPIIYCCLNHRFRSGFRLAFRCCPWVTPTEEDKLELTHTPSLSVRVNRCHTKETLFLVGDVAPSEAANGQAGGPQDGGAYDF
Text: as §1, §2

[3] = test system: substance P-induced bronchoconstriction; test: Inhibition of substance P-induced bronchoconstriction in guinea pigs; assay type: in vivo
Protocol: The study is carried out on male Hartley guinea pigs (Charles River) weighing 300 to 400 g on average. The study is carried out on anesthetized (ethyl carbamate 1.5 g/kg) and Flaxedilcurarized (0.2 mg/kg iv) animals ventilated at a rate of 60 per minute and a volumetric flow of 10ml/kg. The animals are pretreated with pyrilamine (1 mg/kg iv) and propranolol (1 mg/kg iv).
The criterion of judgment of bronchoconstriction is the increase in tracheal insufflation pressure (TIP) induced by the iv injection of substance P at a dose of 2 nM/kg iv, each animal being its own control. Injection of the test product is performed with reference to the time TO of the injection of the product.
The results are expressed as a dose inhibiting substance P-induced bronchoconstriction by 50%, this percentage being calculated according to the following formula: (ΔTIP before product-ΔTIP after product)/ΔTIP before product (expressed as a percentage).

[4] = target: T3, human NK1 receptor (Homo sapiens, UniProt P25103); test: Affinity for the human NK1 receptor on IM-9 human lymphoblasts; assay type: binding
T3 construct: IM-9 human lymphoblasts specifically expressing the NK1 receptor; endogenous in cells; host or cells: IM-9 human lymphoblasts
Text: (§3) The affinity for the human NK1 and NK2 receptors was studied on IM-9 human lymphoblasts specifically expressing the NK1 receptor as described by D. G. Payan et al. (J. Biol. Chem. 1986, 261, 14321-14329) and on CHO-K1 cells transfected with the NK2 receptor according to the CellPhect transfection kit (Pharmacia).

[5] = target: T4, human NK2 receptor (Homo sapiens, UniProt P21452); test: Affinity for the human NK2 receptor on transfected CHO-K1 cells; assay type: binding; details: CHO-K1 cells transfected with the NK2 receptor
T4 construct: expressed in transfected cells; host or cells: CHO-K1
T4 sequence (P21452 1-398): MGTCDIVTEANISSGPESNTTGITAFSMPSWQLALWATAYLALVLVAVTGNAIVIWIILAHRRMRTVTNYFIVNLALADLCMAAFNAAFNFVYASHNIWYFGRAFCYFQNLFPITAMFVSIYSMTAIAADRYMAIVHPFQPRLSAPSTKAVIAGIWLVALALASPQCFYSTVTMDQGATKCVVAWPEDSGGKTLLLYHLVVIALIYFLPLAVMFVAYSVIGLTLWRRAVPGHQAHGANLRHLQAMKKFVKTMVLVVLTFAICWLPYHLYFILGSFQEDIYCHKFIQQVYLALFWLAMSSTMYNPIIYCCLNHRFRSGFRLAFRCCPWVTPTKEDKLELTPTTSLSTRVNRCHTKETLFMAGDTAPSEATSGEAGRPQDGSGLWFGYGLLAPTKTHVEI
Text: as §3

[6] = test system: capsaicin-induced plasma extravasation; test: Inhibition of capsaicin-induced plasma extravasation in guinea pig bronchi; assay type: in vivo, guinea pigs; details: iv 5 minutes before capsaicin 200 μg/kg iv, Evans blue
Protocol: The effect of the compounds on the plasma extravasation caused by intravenous injection of capsaicin (200 μg/kg) in guinea pigs was evaluated in the bronchi according to the method described by Robineau et al (Eur. J. Pharmacol., 1995, 294, 677-684). The accumulation in the bronchi of Evans blue injected IV 1 minute before capsaicin was quantified by spectrophotometry after extraction of the dye with acetone. The inhibitory activity of the compounds via the intravenous route 5 minutes before capsaicin was expressed as a 50% inhibitory dose in comparison to a control group (8 animals per group).

T3 sequence (P25103 whole entry): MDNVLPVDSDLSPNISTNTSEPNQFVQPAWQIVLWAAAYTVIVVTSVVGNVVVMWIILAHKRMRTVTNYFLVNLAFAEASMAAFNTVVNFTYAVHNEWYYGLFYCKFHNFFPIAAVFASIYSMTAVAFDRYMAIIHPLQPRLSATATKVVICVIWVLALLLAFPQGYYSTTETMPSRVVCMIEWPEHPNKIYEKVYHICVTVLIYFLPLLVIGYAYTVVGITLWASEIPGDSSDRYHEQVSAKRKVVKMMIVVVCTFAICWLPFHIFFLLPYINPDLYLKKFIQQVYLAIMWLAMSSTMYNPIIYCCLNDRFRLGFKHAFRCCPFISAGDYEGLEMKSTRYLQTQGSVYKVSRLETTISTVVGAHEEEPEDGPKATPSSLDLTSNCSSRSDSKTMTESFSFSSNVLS
T1 sequence (G1SEI7 1-407): as the sequence (P25103 whole entry) above, with S12F, N189D, P369A, D371E, T376N, C386G, D391N, S402Y, V405M counted along it

O=C(OCc1cc(C(F)(F)F)cc(C(F)(F)F)c1)[C@H](Cc1c[nH]c2ccccc12)NC(=O)[C@@H]1C[C@@H](O)CN1C(=O)c1cn(CCCCc2nnn[nH]2)c2ccccc12.[K] [Example 1, {1-[4-(1H-Tetrazol-5-yl)butyl]-3-indolyl}carbonyl-Hyp-Trp-OBzl(3,5-ditrifluoromethyl) potassium salt]
pA2 in relation to the NK1 receptors [1]: 8.9 | pA2 in relation to the NK2 receptors [2]: 5.2 | ED50, dose inhibiting substance P-induced bronchoconstriction by 50% ([3]; anesthetized guinea pigs, substance P 2 nM/kg iv, tracheal insufflation pressure): 0.06 mg/kg | Potency relative to compound of Example 1 of Patent EP 684,257 ([3]; substance P-induced bronchoconstriction, guinea pigs): two and a half times as potent | Ki [4]: 2.4 nM | Ki [5]: 4.2 µM | ED50, inhibition of capsaicin-induced plasma extravasation [6]: 26 µg/kg
